Data from article PMC5564600 (Oncotarget, 2017).

Legend:
Experiment in all cases: biochemical
Type in all cases: binding
panel of 442 kinases [1] = biological target: T1, panel of 442 kinases (Homo sapiens, UniProt O14936); conditions: CASK; for remaining activity at 1 µM: read-out: % of control at 1 µM
T1 construct: purchased Ambit Biosciences (scanMAXX KINOMEscan)
T1 sequence (O14936 1-926): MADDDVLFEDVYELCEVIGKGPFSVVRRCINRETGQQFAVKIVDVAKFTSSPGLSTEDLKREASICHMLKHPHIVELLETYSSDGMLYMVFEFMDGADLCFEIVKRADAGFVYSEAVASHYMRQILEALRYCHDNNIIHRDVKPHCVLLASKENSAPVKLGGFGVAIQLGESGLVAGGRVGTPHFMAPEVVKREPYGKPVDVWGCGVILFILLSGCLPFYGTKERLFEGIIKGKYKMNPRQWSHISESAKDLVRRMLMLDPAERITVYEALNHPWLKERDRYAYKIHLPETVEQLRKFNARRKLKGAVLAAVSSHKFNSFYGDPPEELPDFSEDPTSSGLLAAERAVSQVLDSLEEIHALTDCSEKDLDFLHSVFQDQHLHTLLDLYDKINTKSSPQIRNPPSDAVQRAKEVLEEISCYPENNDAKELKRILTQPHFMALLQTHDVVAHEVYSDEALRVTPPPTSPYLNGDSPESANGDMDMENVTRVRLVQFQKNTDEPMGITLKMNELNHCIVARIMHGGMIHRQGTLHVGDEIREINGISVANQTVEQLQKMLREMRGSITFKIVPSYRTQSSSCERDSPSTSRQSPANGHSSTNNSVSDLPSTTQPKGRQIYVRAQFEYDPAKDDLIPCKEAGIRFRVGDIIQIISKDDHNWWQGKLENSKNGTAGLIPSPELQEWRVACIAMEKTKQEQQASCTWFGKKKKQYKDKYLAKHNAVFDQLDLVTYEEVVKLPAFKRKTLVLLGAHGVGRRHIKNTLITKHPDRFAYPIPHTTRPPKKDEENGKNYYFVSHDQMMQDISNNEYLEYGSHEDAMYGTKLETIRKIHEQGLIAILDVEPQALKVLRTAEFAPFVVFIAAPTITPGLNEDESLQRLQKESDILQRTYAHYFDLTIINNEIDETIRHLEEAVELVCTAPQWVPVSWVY

panel of 442 kinases [2] = biological target: T2, panel of 442 kinases (Homo sapiens, UniProt P17612); conditions: kinase PKAC-alpha; for remaining activity at 1 µM: read-out: % of control at 1 µM
T2 construct: purchased Ambit Biosciences (scanMAXX KINOMEscan)

panel of 442 kinases [3] = biological target: T3, panel of 442 kinases (Homo sapiens, UniProt P21802); conditions: FGFR2; for remaining activity at 1 µM: read-out: % of control at 1 µM
T3 construct: purchased Ambit Biosciences (scanMAXX KINOMEscan)

panel of 442 kinases [4] = biological target: T4, panel of 442 kinases (Homo sapiens, UniProt P42345); conditions: kinase MTOR; for remaining activity at 1 µM: read-out: % of control at 1 µM
T4 construct: purchased Ambit Biosciences (scanMAXX KINOMEscan)

panel of 442 kinases [5] = biological target: T5, panel of 442 kinases (Homo sapiens, UniProt Q00536); conditions: kinase PCTK1; for remaining activity at 1 µM: read-out: % of control at 1 µM
T5 construct: purchased Ambit Biosciences (scanMAXX KINOMEscan)

panel of 442 kinases [6] = biological target: T6, panel of 442 kinases (Homo sapiens, UniProt Q5VT25); conditions: kinase MRCKA; for remaining activity at 1 µM: read-out: % of control at 1 µM
T6 construct: purchased Ambit Biosciences (scanMAXX KINOMEscan)

panel of 442 kinases [7] = biological target: T7, panel of 442 kinases (Homo sapiens, UniProt Q86Z02); conditions: kinase HIPK1; for remaining activity at 1 µM: read-out: % of control at 1 µM
T7 construct: purchased Ambit Biosciences (scanMAXX KINOMEscan)

panel of 442 kinases [8] = biological target: T8, panel of 442 kinases (Homo sapiens, UniProt Q9UL54); conditions: kinase TAOK2; for remaining activity at 1 µM: read-out: TAOK2 (% of control at 1 µM)
T8 construct: purchased Ambit Biosciences (scanMAXX KINOMEscan)
T8 sequence (Q9UL54 1-1235): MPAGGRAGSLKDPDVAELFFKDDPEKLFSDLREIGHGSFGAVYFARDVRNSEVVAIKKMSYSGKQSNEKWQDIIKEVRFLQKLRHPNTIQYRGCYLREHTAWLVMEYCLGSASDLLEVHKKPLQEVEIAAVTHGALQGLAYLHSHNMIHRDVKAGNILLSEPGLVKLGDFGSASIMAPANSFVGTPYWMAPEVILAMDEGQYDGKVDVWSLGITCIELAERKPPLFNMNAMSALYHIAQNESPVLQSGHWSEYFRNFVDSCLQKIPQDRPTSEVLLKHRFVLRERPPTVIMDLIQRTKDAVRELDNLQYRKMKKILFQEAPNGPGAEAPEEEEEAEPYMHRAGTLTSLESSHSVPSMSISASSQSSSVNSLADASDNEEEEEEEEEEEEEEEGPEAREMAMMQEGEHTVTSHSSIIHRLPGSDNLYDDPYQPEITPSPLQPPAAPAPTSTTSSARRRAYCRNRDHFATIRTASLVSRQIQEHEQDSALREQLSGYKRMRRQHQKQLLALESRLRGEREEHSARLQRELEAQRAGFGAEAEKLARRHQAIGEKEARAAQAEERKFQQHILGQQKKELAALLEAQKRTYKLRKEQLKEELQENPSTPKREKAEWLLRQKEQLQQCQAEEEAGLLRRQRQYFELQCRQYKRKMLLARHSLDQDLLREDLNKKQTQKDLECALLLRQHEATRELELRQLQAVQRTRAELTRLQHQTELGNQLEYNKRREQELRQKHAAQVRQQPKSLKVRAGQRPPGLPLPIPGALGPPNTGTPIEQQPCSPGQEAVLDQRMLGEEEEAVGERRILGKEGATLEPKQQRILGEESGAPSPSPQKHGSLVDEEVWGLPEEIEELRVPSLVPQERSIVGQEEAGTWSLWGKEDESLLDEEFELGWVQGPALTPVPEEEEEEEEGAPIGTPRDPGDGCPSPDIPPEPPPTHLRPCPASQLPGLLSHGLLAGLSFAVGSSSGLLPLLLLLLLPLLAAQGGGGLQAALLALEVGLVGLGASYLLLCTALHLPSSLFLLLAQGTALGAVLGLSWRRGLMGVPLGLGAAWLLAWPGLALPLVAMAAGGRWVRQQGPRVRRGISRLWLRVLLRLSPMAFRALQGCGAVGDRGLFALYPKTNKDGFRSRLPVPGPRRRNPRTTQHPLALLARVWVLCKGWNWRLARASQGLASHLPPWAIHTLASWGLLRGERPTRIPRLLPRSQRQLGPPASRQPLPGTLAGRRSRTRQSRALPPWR

[9] = 10 µM, read-out: % of control at 10 µM

T7 sequence (Q86Z02 whole entry): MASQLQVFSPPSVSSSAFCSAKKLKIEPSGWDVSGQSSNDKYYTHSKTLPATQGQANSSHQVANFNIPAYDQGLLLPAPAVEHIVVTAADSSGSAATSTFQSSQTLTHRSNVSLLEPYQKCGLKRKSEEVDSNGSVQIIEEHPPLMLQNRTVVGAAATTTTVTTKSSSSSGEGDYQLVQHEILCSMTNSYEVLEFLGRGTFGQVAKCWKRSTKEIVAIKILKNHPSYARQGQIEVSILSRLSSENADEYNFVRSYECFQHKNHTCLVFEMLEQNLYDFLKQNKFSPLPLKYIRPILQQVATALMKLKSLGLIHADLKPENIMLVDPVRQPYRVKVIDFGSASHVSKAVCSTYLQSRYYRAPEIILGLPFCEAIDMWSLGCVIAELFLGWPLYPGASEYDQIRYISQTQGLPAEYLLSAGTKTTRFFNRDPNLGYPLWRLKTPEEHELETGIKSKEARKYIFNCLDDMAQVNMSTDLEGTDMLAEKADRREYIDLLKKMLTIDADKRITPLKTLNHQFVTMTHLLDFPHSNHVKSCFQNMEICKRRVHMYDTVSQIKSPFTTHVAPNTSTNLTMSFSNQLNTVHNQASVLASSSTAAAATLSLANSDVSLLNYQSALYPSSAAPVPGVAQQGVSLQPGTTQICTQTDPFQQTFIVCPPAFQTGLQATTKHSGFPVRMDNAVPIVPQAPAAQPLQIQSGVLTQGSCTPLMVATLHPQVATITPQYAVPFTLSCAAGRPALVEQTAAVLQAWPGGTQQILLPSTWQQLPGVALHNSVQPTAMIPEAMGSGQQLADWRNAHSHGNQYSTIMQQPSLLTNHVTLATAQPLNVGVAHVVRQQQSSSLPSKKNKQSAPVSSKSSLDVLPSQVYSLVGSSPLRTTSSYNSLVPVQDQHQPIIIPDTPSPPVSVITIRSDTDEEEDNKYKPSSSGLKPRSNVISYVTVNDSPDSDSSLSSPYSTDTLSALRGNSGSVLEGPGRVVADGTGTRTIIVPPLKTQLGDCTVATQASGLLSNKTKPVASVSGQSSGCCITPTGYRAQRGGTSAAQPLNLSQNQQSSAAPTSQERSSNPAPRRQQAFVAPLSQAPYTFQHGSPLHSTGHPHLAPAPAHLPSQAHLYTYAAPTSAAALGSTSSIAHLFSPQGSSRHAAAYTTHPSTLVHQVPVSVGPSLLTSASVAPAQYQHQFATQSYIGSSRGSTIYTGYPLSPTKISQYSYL
T6 sequence (Q5VT25 whole entry): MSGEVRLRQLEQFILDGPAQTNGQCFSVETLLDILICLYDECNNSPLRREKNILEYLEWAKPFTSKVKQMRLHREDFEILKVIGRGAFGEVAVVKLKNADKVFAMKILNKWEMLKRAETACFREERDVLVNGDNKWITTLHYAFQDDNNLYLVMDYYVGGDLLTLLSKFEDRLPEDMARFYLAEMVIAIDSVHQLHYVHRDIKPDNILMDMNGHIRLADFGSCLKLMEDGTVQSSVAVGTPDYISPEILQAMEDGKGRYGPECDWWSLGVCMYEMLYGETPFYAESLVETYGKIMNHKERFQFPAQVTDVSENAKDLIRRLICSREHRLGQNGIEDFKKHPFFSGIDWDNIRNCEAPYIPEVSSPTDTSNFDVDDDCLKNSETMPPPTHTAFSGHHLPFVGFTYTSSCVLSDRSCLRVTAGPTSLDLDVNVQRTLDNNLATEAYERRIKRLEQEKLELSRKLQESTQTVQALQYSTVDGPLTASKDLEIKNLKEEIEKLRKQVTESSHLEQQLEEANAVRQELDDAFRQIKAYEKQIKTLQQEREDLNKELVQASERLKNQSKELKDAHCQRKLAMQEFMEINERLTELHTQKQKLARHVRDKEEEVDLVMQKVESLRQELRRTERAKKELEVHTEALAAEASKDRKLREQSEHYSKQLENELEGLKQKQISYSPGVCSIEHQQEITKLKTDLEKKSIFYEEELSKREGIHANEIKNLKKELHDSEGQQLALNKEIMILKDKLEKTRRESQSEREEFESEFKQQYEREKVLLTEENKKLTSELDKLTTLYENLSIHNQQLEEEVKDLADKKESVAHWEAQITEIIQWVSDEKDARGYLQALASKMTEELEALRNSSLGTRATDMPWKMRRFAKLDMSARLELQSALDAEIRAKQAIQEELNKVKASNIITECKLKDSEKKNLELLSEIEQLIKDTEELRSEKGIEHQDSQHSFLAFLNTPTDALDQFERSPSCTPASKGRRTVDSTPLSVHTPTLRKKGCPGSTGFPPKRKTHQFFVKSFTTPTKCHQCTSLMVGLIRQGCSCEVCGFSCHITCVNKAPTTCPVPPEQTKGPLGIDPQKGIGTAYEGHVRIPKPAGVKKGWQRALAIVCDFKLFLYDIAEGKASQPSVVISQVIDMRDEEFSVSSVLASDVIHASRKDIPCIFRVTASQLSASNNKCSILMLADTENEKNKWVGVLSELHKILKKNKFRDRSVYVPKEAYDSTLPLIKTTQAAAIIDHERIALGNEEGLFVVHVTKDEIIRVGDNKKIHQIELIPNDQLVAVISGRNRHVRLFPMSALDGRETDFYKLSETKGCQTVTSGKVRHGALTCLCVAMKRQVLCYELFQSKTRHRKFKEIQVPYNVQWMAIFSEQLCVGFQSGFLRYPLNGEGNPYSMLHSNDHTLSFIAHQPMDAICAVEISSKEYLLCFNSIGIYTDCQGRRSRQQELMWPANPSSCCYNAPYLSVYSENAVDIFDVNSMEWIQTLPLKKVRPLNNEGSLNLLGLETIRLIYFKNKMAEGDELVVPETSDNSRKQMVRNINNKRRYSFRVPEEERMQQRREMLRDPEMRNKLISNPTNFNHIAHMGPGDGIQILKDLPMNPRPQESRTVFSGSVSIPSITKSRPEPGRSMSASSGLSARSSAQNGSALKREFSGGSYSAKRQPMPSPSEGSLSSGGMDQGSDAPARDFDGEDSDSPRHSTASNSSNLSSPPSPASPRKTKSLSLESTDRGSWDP
T5 sequence (Q00536 whole entry): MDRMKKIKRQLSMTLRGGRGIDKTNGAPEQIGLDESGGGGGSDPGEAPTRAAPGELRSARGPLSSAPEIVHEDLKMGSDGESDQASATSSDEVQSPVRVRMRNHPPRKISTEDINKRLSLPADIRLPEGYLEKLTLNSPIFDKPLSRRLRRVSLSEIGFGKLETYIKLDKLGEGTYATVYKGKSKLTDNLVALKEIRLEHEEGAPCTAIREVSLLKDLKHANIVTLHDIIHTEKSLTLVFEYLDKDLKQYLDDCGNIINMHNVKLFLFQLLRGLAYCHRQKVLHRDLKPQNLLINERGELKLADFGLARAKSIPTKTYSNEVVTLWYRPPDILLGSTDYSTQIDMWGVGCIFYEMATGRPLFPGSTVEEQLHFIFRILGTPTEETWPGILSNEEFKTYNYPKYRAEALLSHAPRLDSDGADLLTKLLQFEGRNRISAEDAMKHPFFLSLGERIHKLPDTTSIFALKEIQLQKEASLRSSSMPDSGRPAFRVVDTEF
T3 sequence (P21802 22-821): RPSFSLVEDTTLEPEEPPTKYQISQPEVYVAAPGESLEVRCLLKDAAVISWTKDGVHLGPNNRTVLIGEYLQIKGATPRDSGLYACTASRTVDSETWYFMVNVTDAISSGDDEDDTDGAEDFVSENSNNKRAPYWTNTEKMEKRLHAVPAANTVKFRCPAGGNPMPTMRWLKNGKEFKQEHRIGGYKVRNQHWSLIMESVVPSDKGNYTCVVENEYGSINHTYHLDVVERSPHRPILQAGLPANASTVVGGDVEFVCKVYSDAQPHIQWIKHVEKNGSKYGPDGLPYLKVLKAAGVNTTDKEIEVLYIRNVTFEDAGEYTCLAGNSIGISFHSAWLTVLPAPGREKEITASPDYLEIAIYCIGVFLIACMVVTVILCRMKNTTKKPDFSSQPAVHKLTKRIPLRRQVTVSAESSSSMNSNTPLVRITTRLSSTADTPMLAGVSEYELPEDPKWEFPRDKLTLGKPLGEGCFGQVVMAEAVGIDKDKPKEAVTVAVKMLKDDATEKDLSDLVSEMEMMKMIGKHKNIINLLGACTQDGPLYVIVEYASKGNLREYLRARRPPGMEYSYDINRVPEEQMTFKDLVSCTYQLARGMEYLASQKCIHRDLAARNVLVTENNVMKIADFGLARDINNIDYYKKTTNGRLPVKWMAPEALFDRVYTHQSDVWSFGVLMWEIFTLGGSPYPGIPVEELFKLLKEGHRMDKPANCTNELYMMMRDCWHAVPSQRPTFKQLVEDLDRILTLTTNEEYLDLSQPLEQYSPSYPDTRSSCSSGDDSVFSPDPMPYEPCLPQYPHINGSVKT

Compound | remaining activity at 1 µM (panel of 442 kinases [1]) [%] | remaining activity at 10 µM (panel of 442 kinases [1]; [9]) [%] | remaining activity at 1 µM (panel of 442 kinases [2]) [%] | remaining activity at 10 µM (panel of 442 kinases [2]; [9]) [%] | remaining activity at 1 µM (panel of 442 kinases [3]) [%] | remaining activity at 10 µM (panel of 442 kinases [3]; [9]) [%] | remaining activity at 1 µM (panel of 442 kinases [4]) [%] | remaining activity at 10 µM (panel of 442 kinases [4]; [9]) [%] | remaining activity at 1 µM (panel of 442 kinases [5]) [%] | remaining activity at 10 µM (panel of 442 kinases [5]; [9]) [%] | remaining activity at 1 µM (panel of 442 kinases [6]) [%] | remaining activity at 10 µM (panel of 442 kinases [6]; [9]) [%] | remaining activity at 1 µM (panel of 442 kinases [7]) [%] | remaining activity at 10 µM (panel of 442 kinases [7]; [9]) [%] | remaining activity at 1 µM (panel of 442 kinases [8]) [%] | remaining activity at 10 µM (panel of 442 kinases [8]; 10 µM, read-out: TAOK2 (% of control at 10 µM)) [%]
Nc1cc(C(F)(F)F)c(-c2cc(N3CCOCC3)nc(N3CCOCC3)n2)cn1 [Buparlisib] | 99 | 100 | 86 | 100 | 98 | 100 | 20 | 4.6 | 79 | 100 | 80 | 100 | 100 | 89 | 87 | 84
Cn1c(=O)n(-c2ccc(C(C)(C)C#N)cc2)c2c3cc(-c4cnc5ccccc5c4)ccc3ncc21 [Dactolisib, 2-methyl-2-[4-(3-methyl-2-oxo-8-quinolin-3-yl-2,3-dihydroimidazo[4,5-c]quinolin-1-yl)-phenyl] propionitrile] | 100 | – | 100 | – | 100 | – | 0 | – | 100 | – | 83 | – | 72 | – | 98 | –
COc1ncc(-c2ccc3nccc(-c4ccnnc4)c3c2)cc1NS(=O)(=O)c1ccc(F)cc1F [Omipalisib] | 75 | – | 84 | – | 100 | – | 0 | – | 96 | – | 97 | – | 99 | – | 100 | –
FC(F)c1nc2ccccc2n1-c1nc(N2CCOCC2)nc(N2CCOCC2)n1 [ZSTK474, 2-(difluoromethyl)-1-[4,6-di(4-morpholinyl)-1,3,5-triazin-2-yl]-1H-benzimidazole] | 87 | – | 100 | – | 100 | – | 0.75 | – | 95 | – | 83 | – | 86 | – | 81 | –
